Source: patent US8088806B2 (Achillion Pharmaceuticals, Inc., priority 2005, dated 2012)
pEC50: −log10 of the molar value.

System: HCV replicon
Test: Replicon based assay of HCV replication inhibition (NPT ELISA)
Format: cell-based, Hepatitis C virus
Details: Hepatitis C virus, Huh-7, 72 h, Table I; Huh-7 HCV replicon-containing cells, three days; read-out: Activity
Method in brief: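 Huh-7 cells carrying a bicistronic HCV replicon (neo, EMCV-IRES-driven NS3–NS5B) treated overnight after seeding with usually 6 concentrations, 10 to 0.03 micromolar, for three days at 37° C without G418. Replication read as NPT level by captured ELISA; matched-DMSO wells and interferon alpha as controls.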

| Compound | pEC50 |
| --- | --- |
| Clc1ccc(-c2csc(Nc3ccc(Cc4ccccc4)cc3)n2)cc1Cl [compound 40, N-(4-benzylphenyl)-4-(3,4-dichlorophenyl)thiazol-2-amine] | < 5.00 |
| c1ccc(Cc2cccc(Nc3nc(-c4cccnc4)cs3)c2)cc1 [compound 97, N-(3-benzylphenyl)-4-(pyridin-3-yl)thiazol-2-amine] | > 6.00 |
| CCCCCOc1ccc(Nc2nc(C(N)=O)cs2)cc1C(F)(F)F [compound 18, 2-(3-(trifluoromethyl)-4-(pentyloxy)phenylamino)thiazole-4-carboxamide] | > 6.00 |
| Fc1ccc(-c2csc(Nc3ccc(Cl)c(Cl)c3)n2)c(F)c1 [compound 49, N-(3,4-dichlorophenyl)-4-(2,4-difluorophenyl)thiazol-2-amine] | > 6.00 |
| CCOC(=O)c1cc(-c2csc(Nc3cccc(Oc4ccccc4)c3)n2)on1 [compound 190, ethyl S-(2-(3-phenoxyphenylamino)thiazol-4-yl)isoxazole-3-carboxylate] | < 5.00 |
| CC(C)N(c1ccccc1)c1ccc(Nc2nc(-c3cccnc3)cs2)cc1 [compound 106, N1-isopropyl-N1-phenyl-N4-(4-(pyridin-3-yl)thiazol-2-yl)benzene-1,4-diamine] | < 5.00 |
| CCCCCOc1ccc(Nc2nc(-c3cc(C(=O)OCC)no3)cs2)cc1F [compound 176, ethyl 5-(2-(3-fluoro-4-(pentyloxy)phenylamino)thiazol-4-yl)isoxazole-3-carboxylate] | < 5.00 |
| FC(F)(F)c1cc(Nc2nc(-c3ccc(Cl)c(Cl)c3)cs2)ccc1Cl [compound 60, N-(4-chloro-3-(trifluoromethyl)phenyl)-4-(3,4-dichlorophenyl)thiazol-2-amine] | > 6.00 |
| CCCCCOc1ccc(Nc2nc(-c3ccc(Cl)c(Cl)c3)cs2)cn1 [compound 64, N-(4-(3,4-dichlorophenyl)thiazol-2-yl)-6-(pentyloxy)pyridin-3-amine] | < 5.00 |
| CCCCCOc1ccc(Nc2nc(-c3ccc(Cl)cc3)c(-c3ccccc3)s2)cc1C(F)(F)F [compound 135, 4-(4-chlorophenyl)-N-(3-(trifluoromethyl)-4-(pentyloxy)phenyl)-5-phenylthiazol-2-amine] | < 5.00 |

Same assay, conditions: Hepatitis C virus, Huh-7, 72 h, Table III; Huh-7 HCV replicon-containing cells, three days; read-out: Activity

| Compound | pEC50 |
| --- | --- |
| CCCCCCCc1ccc(Nc2nc(-c3ccccn3)cs2)cc1 [compound 563, N-(4-heptylphenyl)-4-(pyridin-2-yl)thiazol-2-amine] | > 6.00 |
| CCCCCCCCN(C)c1ccc(Nc2nc(O)cs2)cc1C(F)(F)F [compound 651] | 5.00 to 6.00 |
| CCCCCCCCOc1ccc(Nc2nc(-c3ncccc3O)cs2)cc1C(F)(F)F [compound 710, 2-(2-(3-(trifluoromethyl)-4-(octyloxy)phenylamino)thiazol-4-yl)pyridin-3-ol] | > 6.00 |
| CCCCCCCCc1ccc(Nc2nc(-c3ccc4[nH]c(=O)oc4c3)cs2)cc1 [compound 549, 6-(2-(4-octylphenylamrno)thiazol-4-yl)benzo[d]oxazol-2(3H)-one] | > 6.00 |
| CCCCCCCCOc1ccc(Nc2nc(-c3ccc(Cl)s3)cs2)cc1C(F)(F)F [compound 582, 4-(5-chlorothiophen-2-yl)-N-(3-(trifluoromethyl)-4-(octyloxy)phenyl)thiazol-2-amine] | > 6.00 |
| CCCCCCCCOc1ccc(Nc2nc(-c3ccc(N)nc3)cs2)cc1 [compound 685, 5-(2-(4-(octyloxy)phenylamino)thiazol-4-yl)pyridin-2-amine] | > 6.00 |
| CCCCCOc1ccc(Nc2nc(/C=C/c3ccc(F)c(F)c3)cs2)cc1C(F)(F)F [compound 599, 4-(3,4-difluorostyryl)-N-(3-(trifluoromethyl)-4-(pentyloxy)phenyl)thiazol-2-amine] | > 6.00 |
| CCCCCCCCN(C)c1ccc(Nc2nc(-c3cc4ccccc4o3)cs2)cc1C(F)(F)F [compound 577, N^4-(4-(benzofuran-2-yl)thiazol-2-yl)-2-(trifluoromethyl)-N^1-methyl-N^1-octylbenzene-1,4-diamine] | 5.00 to 6.00 |
| CCCCCCCCN(C)c1ccc(Nc2nc(-c3ccc4[nH]c(=O)oc4c3)cs2)cc1C(F)(F)F [compound 573, 6-(2-(4-(N-methyl-N-octylamino)-3-(tnfluoromethyl)phenylamino)azol-4-yl)benzo[d]oxazol-2(3H)-one] | > 6.00 |

Same assay, conditions: Hepatitis C virus, replicon based assay of HCV replication inhibition; Table II; read-out: Activity

| Compound | pEC50 |
| --- | --- |
| CCCCCOc1ccc(Nc2nc(-c3ccc(O)c(O)c3)cs2)cc1C(F)(F)F [compound 404, 4-(2-(3-(trifluoromethyl)-4-(pentyloxy)phenylamino)thia-zol-4-yl)benzene-1,2-diol] | > 6.00 |
| CCCCCCCCN(C)c1ccc(Nc2nc(Cc3ccccc3)cs2)cc1C(F)(F)F [compound 492, N^4-(4-benzylthiazol-2-yl)-2-(trifluoromethyl)-N^1-methyl-N^1-octylbenzene-1,4-diamine] | 5.00 to 6.00 |
| CCCCCOc1ccc(Nc2nc(-c3cc(OC)ccc3OC)cs2)cc1C(F)(F)F [compound 431, N-(3-(trifluoromethyl)-4-(pentyloxy)phenyl)-4-(2,5-dimethoxyphenyl)thiazol-2-amine] | 5.00 to 6.00 |
| Cc1sc(Nc2cccc(C(F)(F)F)c2)nc1-c1ccc(F)cc1 [compound 348, 4-(4-fluorophenyl)-5-methyl-N-(3-(trifluoromethyl)phenyl)thia-zol-2-amine] | 5.00 to 6.00 |
| CCCCCOc1ccc(Nc2nc3c(s2)Cc2ccccc2-3)cc1C(F)(F)F [compound 484, N-(3-(trifluoromethyl)-4-(pentyloxy)phenyl)-8H-indeno[1,2-d]thiazol-2-amine] | > 6.00 |
| COc1ccc(CNc2nc(-c3ccc(F)cc3)c(C)s2)cc1 [compound 351, N-(4-methoxybenzyl)-4-(4-fluorophenyl)-5-methylthiazol-2-amine] | < 5.00 |
| CCCCCOc1ccc(Nc2nc(CN3C[C@H](O)CC3C(=O)OC)cs2)cc1F (stereo partly drawn) [compound 290, (4R)-methyl 1-((2-(3-fluoro-4-(pentyloxy)phenylamino)thia-zol-4-yl)methyl)-4-hydroxypyrrolidine-2-carboxylate] | > 6.00 |
| CCCCCOc1ccc(Nc2nc(-c3ccccn3)cs2)cc1C(F)(F)F [compound 409, N-(3-(trifluoromethyl)-4-(pentyloxy)phenyl)-4-(pyridin-2-yl)thiazol-2-amine] | > 6.00 |
| CCCCCCCCOc1ccc(Nc2nc(CN3C[C@H](O)CC3C(=O)OC)cs2)cc1 (stereo partly drawn) [compound 320, (4R)-methyl 4-hydroxy-1-((2-(4-(octyloxy)pheenylamino)thia-zol-4-yl)methyl)pyrrolidine-2-carboxylate] | > 6.00 |
| CCCCCCCCOc1ccc(Nc2nc(-c3c(C)cc(C)nc3C)cs2)cc1 [compound 447, 4-(2,4,6-trimethylpyridin-3-yl)-N-(4-(octyloxy)phenyl)thiazol-2-amine] | < 5.00 |
| CCCCCOc1ccc(Nc2nc(-c3cncnc3)cs2)cc1C(F)(F)F [compound 505, N-(3-(trifluoromethyl)-4-(pentyloxy)phenyl)-4-(pyrimidin-5-yl)thiazol-2-amine] | > 6.00 |
| CCCCCCCOc1ccc(Nc2nc(-c3ccc(Cl)cc3)cs2)cc1 [compound 422, 4-(4-chlorophenyl)-N-(4-(heptyloxy)phenyl)thiazol-2-amine] | > 6.00 |
| CCCCCCCCOc1ccc(Nc2nc(CN3C(C)CCCC3C)cs2)cc1 (stereo not shown) [compound 326, 4-((2,6-dimethylpiperidin-1-yl)methyl)-N-(4-(octyloxy)phenyl)thiazol-2-amine] | 5.00 to 6.00 |
| CC(=O)OCCCCCCN(C)c1ccc(Nc2nc(-c3cccnc3)cs2)cc1C(F)(F)F [compound 465] | 5.00 to 6.00 |

Same assay, conditions: Hepatitis C virus, replicon based assay of HCV replication inhibition; Table IV; read-out: Activity

| Compound | pEC50 |
| --- | --- |
| CCCCOC(=O)c1n[nH]c(Nc2nc(-c3cccnc3)cs2)n1 [compound 795, butyl 5-(4-(pyridin-3-yl)thiazol-2-ylamino)-1H-1,2,4-triazole-3-carboxylate] | < 5.00 |
| COc1ncc(-c2csc(Nc3ccc(CCCCCc4ccccc4)c(C(F)(F)F)c3)n2)cn1 [compound 939, N-(3-(trifluoromethyl)-4-(5-phenylpentyl)phenyl)-4-(2-methoxypyrimidin-5-yl)thiazol-2-amine] | > 6.00 |
| FC(F)(F)c1cc(Nc2nc(-c3cncnc3-c3ccccc3)cs2)ccc1OCC1CCCCC1 [compound 763, N-(4-(cyclohexylmethoxy)-3-(trifluoromethyl)phenyl)-4-(4-phenylpyrimidin-5-yl)thiazol-2-amine] | 5.00 to 6.00 |
| Clc1cc(Nc2nc(-c3cccnc3)cs2)ccc1N1CCOCC1 [compound 742, N-(3-chloro-4-morpholinophenyl)-4-(pyridin-3-yl)thiazol-2-amine] | 5.00 to 6.00 |
| CCN(CC)C(=O)c1cccc(Nc2nc(-c3cccnc3)cs2)c1 [compound 759, 3-(4-(pyridin-3-yl)thiazol-2-ylamino)-N,N-diethylbenzamide] | < 5.00 |
| CCOC(=O)c1csc(-c2csc(Nc3ccc(OCC4CCCCC4)c(C(F)(F)F)c3)n2)n1 [compound 769, ethyl 2-(2-(4-(cyclohexylmethoxy)-3-(trifluoromethyl)phenylamino)thiazole-4-yl)thiazole-4-carboxylate] | > 6.00 |
| Cc1c(C)c(C)c(C(=O)CCc2cccc(Nc3nc(-c4cccnc4)cs3)c2)c(C)c1C [compound 898, 3-(3-(4-(pyridin-3-yl)thiazol-2-ylamino)phenyl)-1-(2,3,4,5,6-pentamethylphenyl)propan-1-one] | > 6.00 |
| Cc1cc(C)cc(Nc2nc(-c3cccnc3)cs2)c1 [compound 906, N-(3,5-dimethylphenyl)-4-(pyridin-3-yl)thiazol-2-amine] | 5.00 to 6.00 |
| COc1cc(-c2ccccc2)c(C)cc1Nc1nc(-c2cccnc2)cs1 [compound 903] | > 6.00 |
| c1cncc(-c2csc(Nc3ccc4c(c3)OCCO4)n2)c1 [compound 737, N-(2,3-dihydrobenzo[b][1,4]dioxin-6-yl)-4-(pyridin-3-yl)thiazol-2-amine] | < 5.00 |
